Test results published in ChEMBL document CHEMBL1145498, “A systematic interaction map of validated kinase inhibitors with Ser/Thr kinases” (Proc Natl Acad Sci U S A, 2007).

Assays:
[1] = molecular target: Protein kinase C alpha type (Homo sapiens, UniProt P17252); experiment: Inhibition of PKCalpha
[2] = molecular target: Epidermal growth factor receptor (Homo sapiens, UniProt P00533)
[3] = molecular target: T1, Protein kinase C epsilon type (Homo sapiens, UniProt Q02156); experiment: Inhibition of PKCepsilon
T1 sequence (Q02156 whole entry): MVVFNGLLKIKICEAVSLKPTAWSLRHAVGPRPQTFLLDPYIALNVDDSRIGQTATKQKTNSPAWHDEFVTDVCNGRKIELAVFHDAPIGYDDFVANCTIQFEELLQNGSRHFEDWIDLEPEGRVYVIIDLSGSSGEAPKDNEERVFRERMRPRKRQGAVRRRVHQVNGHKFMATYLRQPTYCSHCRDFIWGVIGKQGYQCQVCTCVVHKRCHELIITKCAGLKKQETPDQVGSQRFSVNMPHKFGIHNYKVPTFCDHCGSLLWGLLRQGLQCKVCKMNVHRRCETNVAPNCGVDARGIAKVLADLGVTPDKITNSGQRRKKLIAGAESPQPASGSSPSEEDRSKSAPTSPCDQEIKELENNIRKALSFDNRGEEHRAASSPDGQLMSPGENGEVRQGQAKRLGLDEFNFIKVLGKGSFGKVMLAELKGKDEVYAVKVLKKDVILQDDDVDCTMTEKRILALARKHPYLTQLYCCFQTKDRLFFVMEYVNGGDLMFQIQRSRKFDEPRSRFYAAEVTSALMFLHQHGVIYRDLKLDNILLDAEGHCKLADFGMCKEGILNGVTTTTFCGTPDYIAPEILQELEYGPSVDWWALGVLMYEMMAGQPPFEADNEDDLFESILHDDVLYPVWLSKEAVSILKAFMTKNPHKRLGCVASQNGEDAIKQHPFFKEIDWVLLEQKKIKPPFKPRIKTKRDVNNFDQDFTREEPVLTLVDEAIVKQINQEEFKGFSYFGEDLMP

[4] = system: A-375; experiment: Antiproliferative activity against human A375 cells; format: functional, cell-based
[5] = Inhibition of serum-stimulated Akt kinase phosphorylation in human A375 cells; format: cell-based; conditions: A-375
[6] = Inhibition of mouse CaM kinase 2
[7] = molecular target: Vascular endothelial growth factor receptor 2 (Homo sapiens, UniProt P35968); experiment: Inhibition of KDR
[8] = molecular target: Mitogen-activated protein kinase 10 (Homo sapiens, UniProt P53779)
[9] = molecular target: T2, Glycogen synthase kinase-3 beta (Homo sapiens, UniProt P49841); experiment: Binding affinity to GSK3-beta
[10] = molecular target: T2, Glycogen synthase kinase-3 beta; experiment: Inhibition of GSK3-beta; conditions: read-out: IC50
[11] = molecular target: Cyclin-dependent kinase 1 (Homo sapiens, UniProt P06493); experiment: Inhibition of Cdk1
[12] = molecular target: T3, Myosin light chain kinase, smooth muscle (Homo sapiens, UniProt Q15746); experiment: Inhibition of myosin light chain kinase
[13] = Inhibition of CaM-K1
[14] = molecular target: Calcium/calmodulin-dependent protein kinase type IV (Homo sapiens, UniProt Q16566); experiment: Inhibition of CaM-K4
[15] = Inhibition of CaM-K2
[16] = molecular target: Mitogen-activated protein kinase 1 (Homo sapiens, UniProt P28482); experiment: Inhibition of ERK2
[17] = molecular target: T3, Myosin light chain kinase, smooth muscle; experiment: Binding affinity at MLCK
[18] = molecular target: Protein kinase C beta type (Homo sapiens, UniProt P05771); experiment: Inhibition of PKCbeta
[19] = molecular target: Serine-protein kinase ATM (Homo sapiens, UniProt Q13315); experiment: Inhibition of ATM
[20] = molecular target: Serine/threonine-protein kinase ATR (Homo sapiens, UniProt Q13535); experiment: Inhibition of ATR
[21] = Inhibition of Cdk1/cyclin A
[22] = Inhibition of Cdk4/cyclin D
[23] = molecular target: Protein kinase C delta type (Homo sapiens, UniProt Q05655); experiment: Inhibition of PKCdelta
[24] = Inhibition of SGK
[25] = molecular target: Ephrin type-B receptor 3 (Homo sapiens, UniProt P54753); experiment: Inhibition of EphB3
[26] = molecular target: Tyrosine-protein kinase Fyn (Homo sapiens, UniProt P06241); experiment: Inhibition of Fyn
[27] = molecular target: RAC-alpha serine/threonine-protein kinase (Homo sapiens, UniProt P31749); experiment: Inhibition of AKT
[28] = Inhibition Cdk1/cyclin E
[29] = molecular target: Proto-oncogene tyrosine-protein kinase Src (Homo sapiens, UniProt P12931); experiment: Inhibition of Src; conditions: read-out: IC50
[30] = molecular target: Dual specificity mitogen-activated protein kinase kinase 1 (Homo sapiens, UniProt Q02750)
[31] = Inhibition of Cdk5/p35
[32] = molecular target: Tyrosine-protein kinase Lck (Homo sapiens, UniProt P06239)
[33] = molecular target: Inhibitor of nuclear factor kappa-B kinase subunit beta (Homo sapiens, UniProt O14920); experiment: Inhibition of IKK-beta

T3 sequence (Q15746 whole entry): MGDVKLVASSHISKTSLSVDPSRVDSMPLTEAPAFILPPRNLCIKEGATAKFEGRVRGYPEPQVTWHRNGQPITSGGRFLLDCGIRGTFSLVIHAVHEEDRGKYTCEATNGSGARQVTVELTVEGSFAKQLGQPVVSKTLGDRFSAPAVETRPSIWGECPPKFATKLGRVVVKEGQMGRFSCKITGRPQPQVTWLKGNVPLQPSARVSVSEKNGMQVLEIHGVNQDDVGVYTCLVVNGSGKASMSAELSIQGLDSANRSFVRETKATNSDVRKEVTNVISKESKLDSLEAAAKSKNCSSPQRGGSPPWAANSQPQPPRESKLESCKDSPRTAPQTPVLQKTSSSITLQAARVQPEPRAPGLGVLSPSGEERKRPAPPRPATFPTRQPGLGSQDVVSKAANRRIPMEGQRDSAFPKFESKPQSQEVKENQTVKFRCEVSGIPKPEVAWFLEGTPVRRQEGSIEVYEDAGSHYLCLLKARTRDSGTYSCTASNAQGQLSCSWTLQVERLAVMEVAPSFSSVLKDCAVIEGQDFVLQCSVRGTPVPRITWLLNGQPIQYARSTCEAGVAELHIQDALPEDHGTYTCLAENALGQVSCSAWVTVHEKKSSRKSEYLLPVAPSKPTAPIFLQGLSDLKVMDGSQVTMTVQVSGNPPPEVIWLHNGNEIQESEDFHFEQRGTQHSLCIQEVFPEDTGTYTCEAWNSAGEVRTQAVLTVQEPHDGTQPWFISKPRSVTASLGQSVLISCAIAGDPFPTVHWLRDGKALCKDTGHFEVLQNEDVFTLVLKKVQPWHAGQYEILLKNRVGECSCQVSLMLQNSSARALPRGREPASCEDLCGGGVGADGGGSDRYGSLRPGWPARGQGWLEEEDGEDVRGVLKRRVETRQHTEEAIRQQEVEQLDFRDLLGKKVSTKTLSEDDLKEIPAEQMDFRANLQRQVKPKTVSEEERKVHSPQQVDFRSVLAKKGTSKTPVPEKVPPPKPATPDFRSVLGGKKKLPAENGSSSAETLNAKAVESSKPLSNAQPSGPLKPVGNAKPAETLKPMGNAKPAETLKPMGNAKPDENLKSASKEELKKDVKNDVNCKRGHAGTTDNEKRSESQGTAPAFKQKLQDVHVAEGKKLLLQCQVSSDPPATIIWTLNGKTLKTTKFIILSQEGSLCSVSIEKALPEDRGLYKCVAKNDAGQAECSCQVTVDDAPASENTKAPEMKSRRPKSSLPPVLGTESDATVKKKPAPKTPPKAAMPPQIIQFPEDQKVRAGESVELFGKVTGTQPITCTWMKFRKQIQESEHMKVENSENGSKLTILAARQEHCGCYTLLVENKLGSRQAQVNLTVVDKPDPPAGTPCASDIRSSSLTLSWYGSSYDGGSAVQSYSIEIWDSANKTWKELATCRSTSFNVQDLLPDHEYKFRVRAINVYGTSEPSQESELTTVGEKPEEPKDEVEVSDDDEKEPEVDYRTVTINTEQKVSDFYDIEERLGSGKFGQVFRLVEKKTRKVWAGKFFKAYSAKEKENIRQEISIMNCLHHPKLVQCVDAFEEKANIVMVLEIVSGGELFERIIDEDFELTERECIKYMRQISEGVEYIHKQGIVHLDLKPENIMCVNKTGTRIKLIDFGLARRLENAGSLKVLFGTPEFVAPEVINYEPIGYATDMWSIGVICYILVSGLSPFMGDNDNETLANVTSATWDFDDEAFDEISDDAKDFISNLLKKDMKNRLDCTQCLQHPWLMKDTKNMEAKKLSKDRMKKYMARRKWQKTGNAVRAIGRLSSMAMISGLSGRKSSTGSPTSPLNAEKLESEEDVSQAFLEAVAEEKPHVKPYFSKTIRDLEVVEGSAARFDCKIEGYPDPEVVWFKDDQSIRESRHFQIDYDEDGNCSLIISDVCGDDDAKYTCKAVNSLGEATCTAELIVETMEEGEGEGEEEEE
T2 sequence (P49841 whole entry): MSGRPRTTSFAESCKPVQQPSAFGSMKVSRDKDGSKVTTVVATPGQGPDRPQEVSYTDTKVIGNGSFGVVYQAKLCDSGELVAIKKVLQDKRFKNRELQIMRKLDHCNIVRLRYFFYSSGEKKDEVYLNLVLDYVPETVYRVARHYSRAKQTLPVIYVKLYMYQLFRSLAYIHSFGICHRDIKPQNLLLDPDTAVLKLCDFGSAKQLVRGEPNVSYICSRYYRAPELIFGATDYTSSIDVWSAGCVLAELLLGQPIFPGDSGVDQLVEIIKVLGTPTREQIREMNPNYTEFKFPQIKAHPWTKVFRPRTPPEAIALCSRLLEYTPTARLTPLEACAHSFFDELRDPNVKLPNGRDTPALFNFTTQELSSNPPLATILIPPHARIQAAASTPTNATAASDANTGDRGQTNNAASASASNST
Tyrosine-protein kinase Lck, sequence (P06239 whole entry): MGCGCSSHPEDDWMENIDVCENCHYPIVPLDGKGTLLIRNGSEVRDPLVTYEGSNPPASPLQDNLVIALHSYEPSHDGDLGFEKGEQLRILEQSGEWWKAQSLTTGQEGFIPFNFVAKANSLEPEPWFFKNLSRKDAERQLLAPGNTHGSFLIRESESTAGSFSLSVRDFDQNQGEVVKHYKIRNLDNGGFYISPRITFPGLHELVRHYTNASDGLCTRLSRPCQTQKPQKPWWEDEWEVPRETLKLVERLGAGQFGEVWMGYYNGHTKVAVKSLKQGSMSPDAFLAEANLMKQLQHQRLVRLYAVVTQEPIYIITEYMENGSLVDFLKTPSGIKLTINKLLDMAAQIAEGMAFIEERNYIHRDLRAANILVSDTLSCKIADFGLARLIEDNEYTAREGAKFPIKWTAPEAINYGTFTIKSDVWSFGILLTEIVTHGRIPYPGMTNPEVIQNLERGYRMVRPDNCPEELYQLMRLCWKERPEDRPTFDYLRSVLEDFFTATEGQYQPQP
Calcium/calmodulin-dependent protein kinase type IV, sequence (Q16566 whole entry): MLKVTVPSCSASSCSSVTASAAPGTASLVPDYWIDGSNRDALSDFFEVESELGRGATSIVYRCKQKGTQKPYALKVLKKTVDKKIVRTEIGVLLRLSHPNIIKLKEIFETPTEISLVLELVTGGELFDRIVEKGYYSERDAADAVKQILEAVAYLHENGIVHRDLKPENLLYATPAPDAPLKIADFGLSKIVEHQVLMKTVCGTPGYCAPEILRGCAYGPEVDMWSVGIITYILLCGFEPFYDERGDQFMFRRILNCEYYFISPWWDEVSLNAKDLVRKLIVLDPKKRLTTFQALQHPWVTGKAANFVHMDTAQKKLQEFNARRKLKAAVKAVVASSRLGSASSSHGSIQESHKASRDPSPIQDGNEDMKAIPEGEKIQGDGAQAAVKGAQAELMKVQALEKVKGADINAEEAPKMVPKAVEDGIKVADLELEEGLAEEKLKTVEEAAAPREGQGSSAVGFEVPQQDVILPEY
Protein kinase C beta type, sequence (P05771 whole entry): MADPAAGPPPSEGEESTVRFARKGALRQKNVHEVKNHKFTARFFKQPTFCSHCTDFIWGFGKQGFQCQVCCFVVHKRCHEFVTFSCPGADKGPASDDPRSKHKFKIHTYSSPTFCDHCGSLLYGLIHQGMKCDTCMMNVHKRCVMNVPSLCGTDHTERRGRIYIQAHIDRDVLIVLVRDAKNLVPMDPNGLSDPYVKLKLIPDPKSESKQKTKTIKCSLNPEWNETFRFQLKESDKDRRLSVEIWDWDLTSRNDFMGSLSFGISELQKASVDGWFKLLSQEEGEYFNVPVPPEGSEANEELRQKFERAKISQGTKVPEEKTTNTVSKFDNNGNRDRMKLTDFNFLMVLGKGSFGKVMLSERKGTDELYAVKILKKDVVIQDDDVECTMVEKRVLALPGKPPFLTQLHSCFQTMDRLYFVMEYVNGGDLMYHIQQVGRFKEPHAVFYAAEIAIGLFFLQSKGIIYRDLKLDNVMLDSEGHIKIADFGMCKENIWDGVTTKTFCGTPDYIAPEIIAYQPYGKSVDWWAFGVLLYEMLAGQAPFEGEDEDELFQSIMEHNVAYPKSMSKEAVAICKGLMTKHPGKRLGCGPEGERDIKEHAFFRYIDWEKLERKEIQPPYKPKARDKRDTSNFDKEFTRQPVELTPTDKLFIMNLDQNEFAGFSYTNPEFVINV
Cyclin-dependent kinase 1, sequence (P06493 whole entry): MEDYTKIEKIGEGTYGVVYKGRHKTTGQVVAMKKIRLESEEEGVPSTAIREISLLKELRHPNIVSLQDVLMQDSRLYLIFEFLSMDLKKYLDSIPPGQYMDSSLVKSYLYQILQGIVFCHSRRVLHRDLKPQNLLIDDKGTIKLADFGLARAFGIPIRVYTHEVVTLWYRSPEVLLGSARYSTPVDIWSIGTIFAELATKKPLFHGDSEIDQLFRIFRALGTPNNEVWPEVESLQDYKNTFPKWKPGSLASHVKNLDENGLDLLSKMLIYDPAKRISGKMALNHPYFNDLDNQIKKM

CCn1cnc2c(N)nc(N(c3cccc(Cl)c3)[C@@H]3CCCC[C@@H]3N)nc21 (relative stereo)
IC50 [1]: 6.1 µM
IC50 [2]: > 10 µM

COCc1cc(O)c(O)c(O)c1-c1c(COC)cc(O)c(O)c1O
IC50 [3]: 0.175 µM

Oc1cccc(-c2nc(N3CCOCC3)c3sccc3n2)c1
IC50 [4]: 0.58 µM
IC50 [5]: < 3 µM
IC50 [6]: 0.37 µM
IC50 [1]: ≥ 3.4 µM
IC50 [7]: ≥ 3.4 µM

Oc1c2ccccc2c2c3c(cccc13)N=N2 [SP-600125]
IC50 [8]: 0.09 µM

CC(C)n1cnc2c(Nc3cccc(Cl)c3)nc(NCCO)nc21
Kd [9]: 0.126 µM
IC50 [10]: 0.03 µM

O=Nc1c(-c2c(O)[nH]c3ccc(I)cc23)[nH]c2ccccc12
IC50 [11]: 0.005 µM

O=S(=O)(c1cccc2cnccc12)N1CCCNCC1 [FASUDIL]
IC50 [12]: 3.6 µM

CC(=O)O.O=C(O)c1ccc2c3c1cccc3c(=O)n1c3ccccc3nc21
IC50 [13]: > 10 µg/mL
IC50 [14]: > 26.7 µM
IC50 [15]: 10 µg/mL
IC50 [16]: > 26.7 µM
IC50 [17]: 26.7 µM

Cn1c2ccccc2c2c3c(c4c5ccccc5n(CCC#N)c4c21)CNC3=O [GO-6976]
IC50 [1]: 0.002 µM
IC50 [18]: 0.002 µM

NC(N)=S [THIOUREA]
IC50 [19]: 0.2 µM
IC50 [20]: 0.2 µM

O=C1N=C(NCc2cccs2)S/C1=C/c1ccc2ncccc2c1
Ki [21]: 0.11 µM
Ki [22]: > 2 µM
Ki [23]: 0.318 µM
Ki [24]: 0.497 µM
Ki [25]: > 2 µM
Ki [26]: > 2 µM
Ki [1]: > 2 µM
Ki [27]: > 2 µM

O=C1Nc2ccccc2/C1=C1/Nc2ccccc2/C1=N\OCC(O)CO (configuration not stated)
IC50 [28]: 0.21 µM
IC50 [29]: 0.43 µM

O=C1C=CC(=O)c2ccccc21 [NAPHTHOQUINONE]
IC50 [30]: 0.38 µM

CCN(CC)CCCCNc1ncc2cc(-c3cc(OC)cc(OC)c3)c(NC(=O)NC(C)(C)C)nc2n1 [PD-173074]
IC50 [19]: 17.6 µM

CC(C)[C@H](CO)Nc1nc(Nc2cccc(Cl)c2)c2ncn(C(C)C)c2n1 [PURVALANOLA]
IC50 [31]: 0.075 µM

COc1c(C=O)c(O)cc2c1C(=O)c1ccccc1C2=O [DAMNACANTHAL]
IC50 [32]: 0.62 µM

NC(=O)Nc1sc(-c2ccccc2)cc1C(N)=O
IC50 [33]: 0.013 µM
